Measurements: the supplement of paper PMC12137928
Where a name gives a salt, the structure may show the parent alone.

Tested on: HCT116
Conditions: 72 h
Summary of the method: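 Luminescence was read with CellTiter-Glo in HCT116 cells seeded at 250 per well in 1536-well plates. Signals were scaled between vehicle at 0% and positive control at -100%, then pattern-corrected. IC50 and maximal efficacy were obtained by fitting a four-parameter Hill equation.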

SMILES | IC50 cell viability (ICRF193 0 nM) [µM] | IC50 cell viability (ICRF193 200 nM) [µM]
CCC(=O)c1c(O)cc(O)cc1O [Flopropione] | > 45.8 | > 45.8
CS(=O)(=O)c1ccc([C@@H](O)[C@@H](CF)NC(=O)C(Cl)Cl)cc1 [Florfenicol] | > 45.8 | > 45.8
Cc1onc(-c2c(F)cccc2Cl)c1C(=O)N[C@@H]1C(=O)N2[C@@H]1SC(C)(C)[C@@H]2C(=O)O [Flucloxacillin sodium] | > 45.8 | > 45.8
OC(Cn1cncn1)(Cn1cncn1)c1ccc(F)cc1F [Fluconazole] | > 45.8 | > 45.8
Nc1nc(=O)[nH]cc1F [Flucytosine] | > 45.8 | > 45.8
Nc1nc(F)nc2c1ncn2[C@@H]1O[C@H](COP(=O)(O)O)[C@@H](O)[C@@H]1O [Fludarabine phosphate] | > 45.8 | > 45.8
C[C@]12CCC(=O)C=C1CC[C@H]1[C@@H]3CC[C@](O)(C(=O)CO)[C@@]3(C)C[C@H](O)[C@@]12F [Fludrocortisone] | > 45.8 | > 45.8
O=C(O)c1ccccc1Nc1cccc(C(F)(F)F)c1 [Flufenamic acid] | > 45.8 | > 45.8
CCOC(=O)c1ncn2c1CN(C)C(=O)c1cc(F)ccc1-2 [Flumazenil] | > 45.8 | > 45.8
CC(=O)OCC(=O)[C@@]1(O)[C@H](C)C[C@H]2[C@@H]3C[C@H](F)C4=CC(=O)C=C[C@]4(C)[C@@]3(F)[C@@H](O)C[C@@]21C [Flumethasone acetate] | > 45.8 | > 45.8
C[C@@H]1C[C@H]2[C@@H]3C[C@H](F)C4=CC(=O)C=C[C@]4(C)[C@@]3(F)[C@@H](O)C[C@]2(C)[C@@]1(O)C(=O)COC(=O)C(C)(C)C [Flumethasone pivalate] | > 45.8 | > 45.8
C[C@@H]1C[C@H]2[C@@H]3C[C@H](F)C4=CC(=O)C=C[C@]4(C)[C@@]3(F)[C@@H](O)C[C@]2(C)[C@@]1(O)C(=O)CO [Flumethasone] | > 45.8 | > 45.8
CC1(C)O[C@@H]2C[C@H]3[C@@H]4C[C@H](F)C5=CC(=O)C=C[C@]5(C)[C@H]4[C@@H](O)C[C@]3(C)[C@]2(C(=O)CO)O1 [Flunisolide] | > 45.8 | > 45.8
Cc1c(Nc2ncccc2C(=O)O)cccc1C(F)(F)F [Flunixin meglumine] | > 45.8 | > 45.8
CC1(C)O[C@@H]2C[C@H]3[C@@H]4C[C@H](F)C5=CC(=O)C=C[C@]5(C)[C@@]4(F)[C@@H](O)C[C@]3(C)[C@]2(C(=O)CO)O1 [Fluocinolone acetonide] | > 45.8 | > 45.8
CC(=O)OCC(=O)[C@@]12OC(C)(C)O[C@@H]1C[C@H]1[C@@H]3C[C@H](F)C4=CC(=O)C=C[C@]4(C)[C@@]3(F)[C@@H](O)C[C@@]12C [Fluocinonide] | > 45.8 | > 45.8
O=C(O)c1ccccc1-c1c2ccc(=O)cc-2oc2cc(O)ccc12 [Fluorescein sodium] | > 45.8 | > 45.8
CC(=O)O[C@]1(C(C)=O)CC[C@H]2[C@@H]3C[C@H](C)C4=CC(=O)C=C[C@]4(C)[C@@]3(F)[C@@H](O)C[C@@]21C [Fluorometholone Acetate] | > 45.8 | > 45.8

SMILES | IC50 cell viability (ICRF193 0 nM) [µM] | IC50 cell viability (ICRF193 200 nM) [µM]
CC(=O)[C@@]1(O)CC[C@H]2[C@@H]3C[C@H](C)C4=CC(=O)C=C[C@]4(C)[C@@]3(F)[C@@H](O)C[C@@]21C [Fluorometholone] | > 45.8 | > 45.8
C=C1C[C@H]2[C@@H]3CCC4=CC(=O)C=C[C@]4(C)[C@@]3(F)[C@@H](O)C[C@]2(C)[C@@]1(O)C(=O)COC(C)=O [Fluprednidene acetate] | > 45.8 | > 45.8
C[C@]12C=CC(=O)C=C1[C@@H](F)C[C@@H]1[C@@H]2[C@@H](O)C[C@@]2(C)[C@H]1CC[C@]2(O)C(=O)CO [Fluprednisolone] | > 45.8 | > 45.8
CC1(C)O[C@@H]2C[C@H]3[C@@H]4C[C@H](F)C5=CC(=O)CC[C@]5(C)[C@H]4[C@@H](O)C[C@]3(C)[C@]2(C(=O)CO)O1 [Flurandrenolide] | > 45.8 | > 45.8
CC(=O)OC(C)OC(=O)C(C)c1ccc(-c2ccccc2)c(F)c1 (stereo not given) [Flurbiprofen axetil] | > 45.8 | > 45.8
CC(C(=O)O)c1ccc(-c2ccccc2)c(F)c1 (stereo not given) [Flurbiprofen] | > 45.8 | > 45.8
CC(C)C(=O)Nc1ccc([N+](=O)[O-])c(C(F)(F)F)c1 [Flutamide] | > 45.8 | > 45.8
CCC(=O)O[C@]1(C(=O)SCF)[C@H](C)C[C@H]2[C@@H]3C[C@H](F)C4=CC(=O)C=C[C@]4(C)[C@@]3(F)[C@@H](O)C[C@@]21C [Fluticasone propionate] | > 45.8 | > 45.8
C[N+]1(CCF)[C@@H]2CC[C@H]1C[C@@H](OC(=O)C(O)(c1ccccc1)c1ccccc1)C2 (stereo not given in full) [Flutropium bromide] | > 45.8 | > 45.8
COCCCC/C(=N\OCCN)c1ccc(C(F)(F)F)cc1 [Fluvoxamine] | > 45.8 | > 45.8
Nc1nc(=O)c2nc(CNc3ccc(C(=O)N[C@@H](CCC(=O)O)C(=O)O)cc3)cnc2[nH]1 [Folic acid] | > 45.8 | > 45.8
Cc1cn[nH]c1 [Fomepizole] | > 45.8 | > 45.8
CN(CC(=O)N1CCOCC1)Cc1c(Cl)cccc1NC(=O)c1ccccc1 [Fominoben hydrochloride] | > 45.8 | > 45.8
COc1ccc(CC(C)NCC(O)c2ccc(O)c(NC=O)c2)cc1 (stereo not given) [Formoterol hemifumarate] | > 45.8 | > 45.8
CCOP(=O)(OCC)C(C)NC(=O)N(CCCl)N=O (stereo not given) [Fotemustine] | > 45.8 | > 45.8
CN[C@@H]1[C@@H](O)[C@@H](O[C@@H]2[C@@H](O)[C@H](O[C@H]3O[C@H](CN)CC[C@H]3N)[C@@H](N)C[C@H]2N)OC[C@]1(C)O.CN[C@@H]1[C@@H](O)[C@@H](O[C@@H]2[C@@H](O)[C@H](O[C@H]3O[C@H]([C@@H](C)N)CC[C@H]3N)[C@@H](N)C[C@H]2N)OC[C@]1(C)O.CN[C@@H]1[C@@H](O)[C@@H](O[C@@H]2[C@@H](O)[C@H](O[C@H]3O[C@H]([C@@H](C)NC)CC[C@H]3N)[C@@H](N)C[C@H]2N)OC[C@]1(C)O [GENTAMICIN SULFATE] | > 45.8 | > 45.8
CC(C)OC(=O)[C@H](C)N[P@](=O)(CO[C@H](C)Cn1cnc2c(N)ncnc21)Oc1ccccc1 [GS-7340] | > 45.8 | > 45.8
NCC1(CC(=O)O)CCCCC1 [Gabapentin] | > 45.8 | > 45.8

Further lines, results first:

IC50 cell viability (ICRF193 0 nM) [µM] | IC50 cell viability (ICRF193 200 nM) [µM] | SMILES
> 45.8 | > 45.8 | O=c1[nH]cnc2c([C@@H]3N[C@H](CO)[C@@H](O)[C@H]3O)c[nH]c12 [Forodesine (hydrochloride)]
> 45.8 | > 45.8 | CC(C)CN(C[C@@H](OP(=O)(O)O)[C@H](Cc1ccccc1)NC(=O)O[C@H]1CCOC1)S(=O)(=O)c1ccc(N)cc1 [Fosamprenavir (Calcium Salt)]
> 45.8 | > 45.8 | O=C(O)P(=O)(O)O [Foscarnet trisodium]
> 45.8 | > 45.8 | CC/C(=C(/CC)c1ccc(OP(=O)(O)O)cc1)c1ccc(OP(=O)(O)O)cc1 [Fosfestrol tetrasodium]
> 45.8 | > 45.8 | O=P(O)(O)OC(Cn1cncn1)(Cn1cncn1)c1ccc(F)cc1F [Fosfluconazole]
> 45.8 | > 45.8 | O=C1NC(c2ccccc2)(c2ccccc2)C(=O)N1COP(=O)(O)O [Fosphenytoin]
> 45.8 | > 45.8 | CN[C@@H]1CCc2[nH]c3ccc(C(N)=O)cc3c2C1 [Frovatriptan succinate]
> 45.8 | > 45.8 | N[C@@H](CSCCCO)C(=O)O [Fudosteine]
> 45.8 | > 45.8 | C[C@]12CC[C@@H]3c4ccc(O)cc4C[C@@H](CCCCCCCCC[S+]([O-])CCCC(F)(F)C(F)(F)F)[C@H]3[C@@H]1CC[C@@H]2O (stereo not given in full) [Fulvestrant]
> 45.8 | > 45.8 | CO[C@@H]1[C@H](OC(=O)/C=C/C=C/C=C/C=C/C(=O)O)CC[C@]2(CO2)[C@H]1[C@@]1(C)O[C@@H]1CC=C(C)C [Fumagillin]
> 45.8 | > 45.8 | O=C1OCCN1/N=C/c1ccc([N+](=O)[O-])o1 [Furazolidone]
> 45.8 | > 45.8 | NS(=O)(=O)c1cc(C(=O)O)c(NCc2ccco2)cc1Cl [Furosemide]
> 45.8 | > 45.8 | CC(=O)O[C@H]1C[C@@]2(C)[C@@H](C[C@@H](O)[C@H]3[C@@]4(C)CC[C@@H](O)[C@@H](C)[C@@H]4CC[C@@]32C)/C1=C(\CCC=C(C)C)C(=O)O [Fusidic Acid (sodium salt)]
> 45.8 | > 45.8 | CC(OC(=O)NCC1(CC(=O)O)CCCCC1)OC(=O)C(C)C (stereo not given) [GABAPENTIN ENACARBIL]
> 45.8 | > 45.8 | CCCCCCCCCCCC(=O)OCC(O)CO (stereo not given) [GLYCERYL LAURATE]
> 45.8 | > 45.8 | CCOC(=O)c1ccc(OC(=O)CCCCCNC(=N)N)cc1 [Gabexate mesilate]
> 45.8 | > 45.8 | COc1ccc2c3c1O[C@H]1C[C@@H](O)C=C[C@@]31CCN(C)C2 [Galanthamine]
> 45.8 | > 45.8 | O=C(O)c1cc(O)c(O)c(O)c1 [Gallic acid]
> 45.8 | > 45.8 | COc1ccc(CCN(C)CCCC(C#N)(c2cc(OC)c(OC)c(OC)c2)C(C)C)cc1OC (stereo not given) [Gallopamil hydrochloride]
